{
  "source": "patent US6833389B2",
  "about": "“Use of thiamphenicol and derivatives thereof for the preparation of pharmaceutical compositions useful in the treatment of Chlamydia pneumoniae infections” (Zambon Group S.p.A., priority 2000, dated 2004)",
  "key": {"[1]": {"test_system": "Chlamydia pneumoniae", "assay": "MIC against Chlamydia pneumoniae strains in Hep-2 cell monolayers (inhibition of inclusion formation)", "format": "cell-based", "protocol": "Chlamydia pneumoniae TW183 and Chlamydia pneumoniae 2023 were obtained from American Type Culture Collection. The other strains (No. 9 isolated) were clinically isolated in the period 1997-1999. […] Monolayers of Hep-2 cells were prepared by seeding 2×10^5 cell/ml in EMEM with 10% fetal calf serum supplemented with L-glutammine, on 12 mm cover slips and left at 35° C., 5% CO2 for 24 to 48 hours for confluent growth. The growth medium was removed and Hep-2 monolayers were inoculated with the different strains at predetermined concentration calculated to give 3-5×10^2 inclusions for well. The monolayers, inoculated with Chlamydia pneumoniae were centrifuged at 1700 g for 60 minutes at 30° C. […] In positive control no antibiotic was added and negative control were considered wells not inoculated with Chlamydia pneumoniae. […] All tests were run in duplicate. The number of inclusions were counted and the MIC (the lowest concentration at which complete inhibition of inclusion formation was observed) was determined."}, "[2]": {"test_system": "Chlamydia trachomatis", "details": "literature (Ridgeway et al. 1979); markedly lower than erythromycin; cited from earlier work"}, "[3]": {"details": "Chlamydia pneumoniae, 72 h, MIC range over the 11 Chlamydia pneumoniae strains, Hep-2 cells, 3 days, read-out: MIC"}, "[4]": {"details": "strain 1 (clinical isolate), test I"}, "[5]": {"details": "strain 1 (clinical isolate), test II"}, "[6]": {"details": "strain 2 (clinical isolate), test I"}, "[7]": {"details": "strain 2 (clinical isolate), test II"}, "[8]": {"details": "strain 3 (clinical isolate), test I"}, "[9]": {"details": "strain 3 (clinical isolate), test II"}, "[10]": {"details": "strain 4 (clinical isolate), test I"}, "[11]": {"details": "strain 4 (clinical isolate), test II"}, "[12]": {"details": "strain 5 (clinical isolate), test I"}, "[13]": {"details": "strain 5 (clinical isolate), test II"}, "[14]": {"details": "strain 6 (clinical isolate), test I"}, "[15]": {"details": "strain 6 (clinical isolate), test II"}, "[16]": {"details": "strain 7 (clinical isolate), test I"}, "[17]": {"details": "strain 7 (clinical isolate), test II"}, "[18]": {"details": "strain 8 (clinical isolate), test I"}, "[19]": {"details": "strain 8 (clinical isolate), test II"}, "[20]": {"details": "strain 9 (clinical isolate), test I"}, "[21]": {"details": "strain 9 (clinical isolate), test II"}},
  "note": "Where two headings read alike, the source gives them in different places.",
  "data": [
    {"molecule": "C[C@H]1c2cccc(O)c2C(=O)C2=C(O)[C@]3(O)C(=O)C(C(N)=O)=C(O)[C@@H](N(C)C)[C@@H]3[C@@H](O)[C@@H]21", "note": "[Doxycycline, doxycycline]", "values": [
      {"measurement": "MIC", "setting": "[1]; [3]", "value": "0.06 to 0.25", "unit": "µg/mL"},
      {"measurement": "MIC", "setting": "[1]; Chlamydia pneumoniae, ATCC2023, strain ATCC 2023, test I, read-out: MIC", "value": 0.06, "unit": "µg/mL"},
      {"measurement": "MIC", "setting": "[1]; Chlamydia pneumoniae, ATCC2023, strain ATCC 2023, test II, read-out: MIC", "value": 0.06, "unit": "µg/mL"},
      {"measurement": "MIC", "setting": "[1]; Chlamydia pneumoniae, strain 1 (clinical isolate), test I, read-out: MIC", "value": 0.06, "unit": "µg/mL"},
      {"measurement": "MIC", "setting": "[1]; Chlamydia pneumoniae, strain 1 (clinical isolate), test II, read-out: MIC", "value": 0.125, "unit": "µg/mL"},
      {"measurement": "MIC", "setting": "[1]; Chlamydia pneumoniae, strain 2 (clinical isolate), test I, read-out: MIC", "value": 0.125, "unit": "µg/mL"},
      {"measurement": "MIC", "setting": "[1]; Chlamydia pneumoniae, strain 2 (clinical isolate), test II, read-out: MIC", "value": 0.125, "unit": "µg/mL"},
      {"measurement": "MIC", "setting": "[1]; Chlamydia pneumoniae, strain 3 (clinical isolate), test I, read-out: MIC", "value": 0.125, "unit": "µg/mL"},
      {"measurement": "MIC", "setting": "[1]; Chlamydia pneumoniae, strain 3 (clinical isolate), test II, read-out: MIC", "value": 0.125, "unit": "µg/mL"},
      {"measurement": "MIC", "setting": "[1]; Chlamydia pneumoniae, strain 4 (clinical isolate), test I, read-out: MIC", "value": 0.06, "unit": "µg/mL"},
      {"measurement": "MIC", "setting": "[1]; Chlamydia pneumoniae, strain 4 (clinical isolate), test II, read-out: MIC", "value": 0.06, "unit": "µg/mL"},
      {"measurement": "MIC", "setting": "[1]; Chlamydia pneumoniae, strain 5 (clinical isolate), test I, read-out: MIC", "value": 0.125, "unit": "µg/mL"},
      {"measurement": "MIC", "setting": "[1]; Chlamydia pneumoniae, strain 5 (clinical isolate), test II, read-out: MIC", "value": 0.06, "unit": "µg/mL"},
      {"measurement": "MIC", "setting": "[1]; Chlamydia pneumoniae, strain 6 (clinical isolate), test I, read-out: MIC", "value": 0.06, "unit": "µg/mL"},
      {"measurement": "MIC", "setting": "[1]; Chlamydia pneumoniae, strain 6 (clinical isolate), test II, read-out: MIC", "value": 0.06, "unit": "µg/mL"},
      {"measurement": "MIC", "setting": "[1]; Chlamydia pneumoniae, strain 7 (clinical isolate), test I, read-out: MIC", "value": 0.06, "unit": "µg/mL"},
      {"measurement": "MIC", "setting": "[1]; Chlamydia pneumoniae, strain 7 (clinical isolate), test II, read-out: MIC", "value": 0.06, "unit": "µg/mL"},
      {"measurement": "MIC", "setting": "[1]; Chlamydia pneumoniae, strain 8 (clinical isolate), test I, read-out: MIC", "value": 0.25, "unit": "µg/mL"},
      {"measurement": "MIC", "setting": "[1]; Chlamydia pneumoniae, strain 8 (clinical isolate), test II, read-out: MIC", "value": 0.06, "unit": "µg/mL"},
      {"measurement": "MIC", "setting": "[1]; Chlamydia pneumoniae, strain 9 (clinical isolate), test I, read-out: MIC", "value": 0.25, "unit": "µg/mL"},
      {"measurement": "MIC", "setting": "[1]; Chlamydia pneumoniae, strain 9 (clinical isolate), test II, read-out: MIC", "value": 0.25, "unit": "µg/mL"},
      {"measurement": "MIC", "setting": "[1]; Chlamydia pneumoniae, strain TW 183, test I, read-out: MIC", "value": 0.125, "unit": "µg/mL"},
      {"measurement": "MIC", "setting": "[1]; Chlamydia pneumoniae, strain TW 183, test II, read-out: MIC", "value": 0.25, "unit": "µg/mL"}
    ]},
    {"molecule": "CC(=O)N[C@@H](CS)C(=O)O.CS(=O)(=O)c1ccc([C@@H](O)[C@@H](COC(=O)CN)NC(=O)C(Cl)Cl)cc1", "note": "[TGA, thiamphenicol glycinate acetylcysteinate]", "values": [
      {"measurement": "MIC", "setting": "[1]; [4]", "value": 0.03, "unit": "µg/mL"},
      {"measurement": "MIC", "setting": "[1]; [5]", "value": 0.06, "unit": "µg/mL"},
      {"measurement": "MIC", "setting": "[1]; [6]", "value": 0.03, "unit": "µg/mL"},
      {"measurement": "MIC", "setting": "[1]; [7]", "value": 0.03, "unit": "µg/mL"},
      {"measurement": "MIC", "setting": "[1]; [8]", "value": 0.125, "unit": "µg/mL"},
      {"measurement": "MIC", "setting": "[1]; [9]", "value": 0.125, "unit": "µg/mL"},
      {"measurement": "MIC", "setting": "[1]; [10]", "value": 0.25, "unit": "µg/mL"},
      {"measurement": "MIC", "setting": "[1]; [11]", "value": 0.06, "unit": "µg/mL"},
      {"measurement": "MIC", "setting": "[1]; [12]", "value": 0.125, "unit": "µg/mL"},
      {"measurement": "MIC", "setting": "[1]; [13]", "value": 0.125, "unit": "µg/mL"},
      {"measurement": "MIC", "setting": "[1]; [14]", "value": 0.03, "unit": "µg/mL"},
      {"measurement": "MIC", "setting": "[1]; [15]", "value": 0.03, "unit": "µg/mL"},
      {"measurement": "MIC", "setting": "[1]; [16]", "value": 0.03, "unit": "µg/mL"},
      {"measurement": "MIC", "setting": "[1]; [17]", "value": 0.03, "unit": "µg/mL"},
      {"measurement": "MIC", "setting": "[1]; [18]", "value": 0.125, "unit": "µg/mL"},
      {"measurement": "MIC", "setting": "[1]; [19]", "value": 0.03, "unit": "µg/mL"},
      {"measurement": "MIC", "setting": "[1]; [20]", "value": 0.125, "unit": "µg/mL"},
      {"measurement": "MIC", "setting": "[1]; [21]", "value": 0.125, "unit": "µg/mL"},
      {"measurement": "MIC", "setting": "[1]; strain ATCC 2023, test I", "value": 0.03, "unit": "µg/mL"},
      {"measurement": "MIC", "setting": "[1]; strain ATCC 2023, test II", "value": 0.03, "unit": "µg/mL"},
      {"measurement": "MIC", "setting": "[1]; strain TW 183, test I", "value": 0.06, "unit": "µg/mL"},
      {"measurement": "MIC", "setting": "[1]; strain TW 183, test II", "value": 0.03, "unit": "µg/mL"}
    ]},
    {"molecule": "CN(C)[C@@H]1C(O)=C(C(N)=O)C(=O)[C@@]2(O)C(O)=C3C(=O)c4c(O)cccc4[C@@](C)(O)[C@H]3C[C@@H]12.Cl", "note": "[Tetracycline, tetracycline hydrochloride]", "values": [
      {"measurement": "MIC", "setting": "[1]; MIC range over the 11 Chlamydia pneumoniae strains, Hep-2 cells, 3 days", "value": "0.06 to 0.5", "unit": "µg/mL"},
      {"measurement": "MIC", "setting": "[1]; [4]", "value": 0.06, "unit": "µg/mL"},
      {"measurement": "MIC", "setting": "[1]; [5]", "value": 0.06, "unit": "µg/mL"},
      {"measurement": "MIC", "setting": "[1]; [6]", "value": 0.06, "unit": "µg/mL"},
      {"measurement": "MIC", "setting": "[1]; [7]", "value": 0.06, "unit": "µg/mL"},
      {"measurement": "MIC", "setting": "[1]; [8]", "value": 0.125, "unit": "µg/mL"},
      {"measurement": "MIC", "setting": "[1]; [9]", "value": 0.125, "unit": "µg/mL"},
      {"measurement": "MIC", "setting": "[1]; [10]", "value": 0.125, "unit": "µg/mL"},
      {"measurement": "MIC", "setting": "[1]; [11]", "value": 0.5, "unit": "µg/mL"},
      {"measurement": "MIC", "setting": "[1]; [12]", "value": 0.125, "unit": "µg/mL"},
      {"measurement": "MIC", "setting": "[1]; [13]", "value": 0.25, "unit": "µg/mL"},
      {"measurement": "MIC", "setting": "[1]; [14]", "value": 0.06, "unit": "µg/mL"},
      {"measurement": "MIC", "setting": "[1]; [15]", "value": 0.5, "unit": "µg/mL"},
      {"measurement": "MIC", "setting": "[1]; [16]", "value": 0.125, "unit": "µg/mL"},
      {"measurement": "MIC", "setting": "[1]; [17]", "value": 0.125, "unit": "µg/mL"},
      {"measurement": "MIC", "setting": "[1]; [18]", "value": 0.06, "unit": "µg/mL"},
      {"measurement": "MIC", "setting": "[1]; [19]", "value": 0.06, "unit": "µg/mL"},
      {"measurement": "MIC", "setting": "[1]; [20]", "value": 0.06, "unit": "µg/mL"},
      {"measurement": "MIC", "setting": "[1]; [21]", "value": 0.5, "unit": "µg/mL"},
      {"measurement": "MIC", "setting": "[1]; strain ATCC 2023, test I", "value": 0.06, "unit": "µg/mL"},
      {"measurement": "MIC", "setting": "[1]; strain ATCC 2023, test II", "value": 0.125, "unit": "µg/mL"},
      {"measurement": "MIC", "setting": "[1]; strain TW 183, test I", "value": 0.06, "unit": "µg/mL"},
      {"measurement": "MIC", "setting": "[1]; strain TW 183, test II", "value": 0.06, "unit": "µg/mL"}
    ]},
    {"molecule": "CS(=O)(=O)c1ccc([C@@H](O)[C@@H](CO)NC(=O)C(Cl)Cl)cc1", "note": "[thiamphenicol]", "values": [
      {"measurement": "activity against Chlamydia trachomatis", "setting": "[2]", "value": "active"},
      {"measurement": "MIC", "setting": "[1]; [3]", "value": "0.03 to 0.25", "unit": "µg/mL"}
    ]}
  ]
}
